{
  "source": "patent US8545834B2",
  "about": "“G-substrate for the treatment and prevention of parkinson's disease” (The McLean Hospital Corporation, priority 2007, dated 2013)",
  "key": {"A9 DA neurons": {"system": "A9 DA neurons", "type": "in vivo, rat", "excerpt": "Retrograde 6-OHDA lesioning within the striatum is a well-established method of creating progressive degeneration of A9 DA neurons. The loss of TH immunoreactivity reflects actual loss of DA neurons (Sauer, 1994).\nThe in vivo neuroprotective effects of G-substrate against 6-OHDA-induced toxicity was examined by injecting 6-OHDA into the corpus striatum of rats which previously had either G-substrate or control genes (empty vector or YFP) delivered to the midbrain using the lentivirus as described above. 6-OHDA induced approximately an 80% loss of TH-positive neurons in the midbrain (FIG. 12Q) and complete loss of TH immunoreactivity in the striatum (data not shown). The severity of the striatal insult in this paradigm precluded our ability to usefully measure protection of striatal nerve terminals. […] Furthermore, most of the surviving TH-positive neurons in lenti G-substrate-transduced rats were strongly G-substrate-positive (FIGS. 12G-12L).\nRats received two 2.75 μl stereotaxic injections of either lenti-empty vector+lenti-eGFP (n=19), lenti-G substrate+lenti-eGFP (n=19), or lenti-YFP (n=14) and delivered at a rate of 0.2 μl/min using microinfusion pumps (Stoelting Co, Wood Dale, Ill.) with 10 min wait times after each injection. Lenti-eGFP was added to each condition, excluding the YFP condition, to serve as an exogenous marker for surgical targeting (0.5 μl of the total 5.5 μl A volume). SN injection coordinates were as follows: site 1: AP −4.8, ML −2.0, DV −7.2; site 2: AP −5.5, ML −1.8, DV −7.2; and tooth bar set at −3.3. Virus titers (p24) were as follows: G substrate, 60 ng/μl; empty vector, 60 ng/μl; eGFP, 83 ng/μl; and YFP, 60 ng/μl.\nTwo weeks following lentiviral injection, animals (lenti-empty vector+lenti-eGFP (n=9), lenti-G substrate+lenti-eGFP (n=9), or lenti-YFP (n=14)) received three 2.5 μl stereotaxic injections of 3.0 μg/μl 6-OHDA (total dose=22.5 μg 6-OHDA) delivered at a rate of 0.5 μl/min and 5 min wait times after each injection. Striatum injection coordinates were as follows: site 1: AP +1.3, ML −2.8, DV −4.5; site 2: AP +0.2, ML, −3.0, DV −5.0; site 3: AP −0.6, ML −4.0, DV −5.5; and tooth bar set at −3.3. The lesion was allowed to progress for 3 weeks after which animals were sacrificed for post mortem analyses.\nBrains were cut frozen in the coronal plane at a thickness of 40 μm on a sliding microtome and six series of sections were stored in cryoprotectant. Two full series of sections were processed for visualization of tyrosine hydroxylase (TH) via the biotin-labeled antibody procedure. Briefly, following several washes in a PBS solution containing 0.01% Triton X-100 (PBS-T), endogenous peroxidase was quenched in a 3% hydrogen peroxide solution and background staining was then inhibited in a 5% normal goat serum solution. […]"}, "BE(2)-M17 cells": {"system": "BE(2)-M17 cells", "assay": "In vitro protection assays (MTS cell viability, LDH release) against neurotoxins", "type": "cell-based, human", "settings": "lentiviral overexpression in BE(2)-M17 cells, toxin 20 hrs", "description": "Viability of the M17 cells was assessed following exposure to a variety of neurotoxins, each representing different aspects of PD pathology. 6-hydroxydopamine (6-OHDA) causes oxidative stress. MG-132 induces proteasome inhibition. And, MPP+ causes mitochondrial dysfunction by inhibiting Complex I. Cytotoxicity of M17 cells was determined using both cell viability assays and LDH release. G-substrate overexpression in M17 cells was confirmed by Western blot analysis (FIG. 3A) and by immunocytochemistry (FIG. 3B).\nBE(2)-M17 cells were transduced with lentivirus expressing control or G-substrate with a multiplicity of infection 15. Cells were grown in Optimem™ (Invitrogen, Carlsbad, Calif.) supplemented with 10% heat-inactivated fetal calf serum (Hyclone, Logan, Utah), nonessential amino acid and sodium pyruvate. Cells were maintained at 37° C., in 5% CO2 humid atmosphere. For the bioassay, cells were plated in 96 well plates at 5000 per well. The next day, cells were treated with various concentrations of 6-OHDA (Sigma), MG-132 (Calbiochem) and MPP+ (Sigma) for 20 hrs. The supernatant was used to determine cytotoxicity using LDH release assay kit (Roche, Indianapolis, Ind.) and the cells remaining on the plate was used to determine cell viability using MTS based solution, CellTiter 96 AQueous One™ solution cell proliferation assay (Promega, Madison, Wis.).\nThree different siRNAs for human G-substrate as described herein, a negative control siRNA, and a validated Akt siRNA (Ambion; Austin, Tex.) were used. Cells were plated in 96 well plates at 5000 per well with siRNAs and siPORT NeoFX transfection agent (Ambion, Austin, Tex.). After 48 hrs of incubation with siRNAs, each of the toxicants (6-OHDA, MG-132 or MPP+) were applied to the cells. Cell viability and cytotoxicity was measured after 20 hrs of toxin exposure."}},
  "data": [
    {"substance": "G-substrate: human wild type G-substrate (SEQ ID NO.: 1) overexpressed from a lentiviral vector", "values": [
      {"measurement": "DA neuronal protection", "setting": "A9 DA neurons; 6-OHDA-lesioned rats", "value": "~10", "unit": "%"},
      {"measurement": "transduced DA neurons protected from 6-OHDA-induced toxicity", "setting": "A9 DA neurons; worked out from 22.3% transduction and ˜10% protection", "value": "approximately 50%"},
      {"measurement": "protection against MPP+-induced toxicity (cell viability, LDH release)", "setting": "BE(2)-M17 cells", "value": "neither wild-type nor T123A mutant G-substrate overexpression was protective"},
      {"measurement": "neuroprotection against 6-OHDA toxicity (cell viability, LDH release)", "setting": "BE(2)-M17 cells; compared to control", "value": "neuroprotective"},
      {"measurement": "neuroprotection against MG-132 toxicity (cell viability, LDH release)", "setting": "BE(2)-M17 cells; compared to control", "value": "neuroprotective"}
    ]}
  ]
}
